ChEMBL document CHEMBL3585344, “Thiazole-based aminopyrimidines and N-phenylpyrazolines as potent antimicrobial agents: synthesis and biological evaluation” (2014)
Values after ≈ are worked out from the molar mass of the structure shown.

What was measured:
Enterococcus faecalis [1] = assay: Bactericidal activity against Enterococcus faecalis ATCC 7080 isolated from human after 72 hrs by microdilution method; type: functional
Aspergillus ochraceus [2] = assay: Fungicidal activity against Aspergillus ochraceus ATCC 12066 after 72 hrs by microdilution method; type: functional
Trichoderma viride [3] = assay: Antifungal activity against Trichoderma viride IAM 5061 after 72 hrs by microdilution method; type: functional; conditions: IAM 5061, 72 h
Bacillus cereus [4] = assay: Bactericidal activity against Bacillus cereus clinical isolate after 72 hrs by microdilution method; type: functional
Aspergillus versicolor [5] = assay: Antifungal activity against Aspergillus versicolor ATCC 11730 after 72 hrs by microdilution method; type: functional; conditions: ATCC 11730, 72 h
Staphylococcus aureus [6] = assay: Antibacterial activity against Staphylococcus aureus ATCC 6538 after 24 hrs by microdilution method; type: functional; conditions: ATCC 6538, 24 h
Penicillium ochrochloron [7] = assay: Antifungal activity against Penicillium ochrochloron ATCC 9112 after 72 hrs by microdilution method; type: functional; conditions: ATCC 9112, 72 h
Staphylococcus aureus [8] = assay: Bactericidal activity against Staphylococcus aureus ATCC 6538 after 72 hrs by microdilution method; type: functional
Aspergillus fumigatus [9] = assay: Fungicidal activity against Aspergillus fumigatus isolated from human after 72 hrs by microdilution method; type: functional
Aspergillus niger [10] = assay: Antifungal activity against Aspergillus niger ATCC 6275 after 72 hrs by microdilution method; type: functional; conditions: ATCC 6275, 72 h
Talaromyces funiculosus [11] = assay: Fungicidal activity against Penicillium funiculosum ATCC 36839 after 72 hrs by microdilution method; type: functional
Escherichia coli [12] = assay: Antibacterial activity against Escherichia coli ATCC 35210 after 24 hrs by microdilution method; type: functional; conditions: ATCC 35210, 24 h
Aspergillus fumigatus [13] = assay: Antifungal activity against Aspergillus fumigatus isolated from human after 72 hrs by microdilution method; type: functional
Escherichia coli [14] = assay: Bactericidal activity against Escherichia coli ATCC 35210 after 72 hrs by microdilution method; type: functional
Pseudomonas aeruginosa [15] = assay: Bactericidal activity against Pseudomonas aeruginosa ATCC 27853 after 72 hrs by microdilution method; type: functional
Aspergillus flavus [16] = assay: Fungicidal activity against Aspergillus flavus ATCC 9643 after 72 hrs by microdilution method; type: functional
Aspergillus flavus [17] = assay: Antifungal activity against Aspergillus flavus ATCC 9643 after 72 hrs by microdilution method; type: functional; conditions: ATCC 9643, 72 h
Salmonella typhimurium [18] = assay: Bactericidal activity against Salmonella typhimurium ATCC 13311 after 72 hrs by microdilution method; type: functional, Salmonella enterica subsp. enterica serovar Typhimurium
Penicillium ochrochloron [19] = assay: Fungicidal activity against Penicillium ochrochloron ATCC 9112 after 72 hrs by microdilution method; type: functional
Trichoderma viride [20] = assay: Fungicidal activity against Trichoderma viride IAM 5061 after 72 hrs by microdilution method; type: functional
Bacillus cereus [21] = assay: Antibacterial activity against Bacillus cereus clinical isolate after 24 hrs by microdilution method; type: functional
Talaromyces funiculosus [22] = assay: Antifungal activity against Penicillium funiculosum ATCC 36839 after 72 hrs by microdilution method; type: functional; conditions: ATCC 36839, 72 h
Listeria monocytogenes [23] = assay: Bactericidal activity against Listeria monocytogenes NCTC 7973 after 72 hrs by microdilution method; type: functional
Micrococcus flavus [24] = assay: Antibacterial activity against Micrococcus flavus ATCC 10240 after 24 hrs by microdilution method; type: functional; conditions: ATCC 10240, 24 h
Aspergillus ochraceus [25] = assay: Antifungal activity against Aspergillus ochraceus ATCC 12066 after 72 hrs by microdilution method; type: functional; conditions: ATCC 12066, 72 h
Enterococcus faecalis [26] = assay: Antibacterial activity against Enterococcus faecalis ATCC 7080 isolated from human after 24 hrs by microdilution method; type: functional; conditions: ATCC 7080, 24 h
Aspergillus niger [27] = assay: Fungicidal activity against Aspergillus niger ATCC 6275 after 72 hrs by microdilution method; type: functional
Aspergillus versicolor [28] = assay: Fungicidal activity against Aspergillus versicolor ATCC 11730 after 72 hrs by microdilution method; type: functional
Listeria monocytogenes [29] = assay: Antibacterial activity against Listeria monocytogenes NCTC 7973 after 24 hrs by microdilution method; type: functional; conditions: NCTC 7973, 24 h
Micrococcus flavus [30] = assay: Bactericidal activity against Micrococcus flavus ATCC 10240 after 72 hrs by microdilution method; type: functional
Pseudomonas aeruginosa [31] = assay: Antibacterial activity against Pseudomonas aeruginosa ATCC 27853 after 24 hrs by microdilution method; type: functional; conditions: ATCC 27853, 24 h
Salmonella typhimurium [32] = assay: Antibacterial activity against Salmonella typhimurium ATCC 13311 after 24 hrs by microdilution method; type: functional, Salmonella enterica subsp. enterica serovar Typhimurium; conditions: Salmonella enterica, ATCC 13311, 24 h

| SMILES | MBC99.5 (Enterococcus faecalis [1]) [×10⁻² umol/ml] | MFC99.5 (Aspergillus ochraceus [2]) [×10⁻² umol/ml] | MIC (Trichoderma viride [3]) [µM] | MBC99.5 (Bacillus cereus [4]) [×10⁻² umol/ml] | MIC (Aspergillus versicolor [5]) [µM] | MIC (Staphylococcus aureus [6]) [µM] | MIC (Penicillium ochrochloron [7]) [µM] | MBC99.5 (Staphylococcus aureus [8]) [×10⁻² umol/ml] | MFC99.5 (Aspergillus fumigatus [9]) [×10⁻² umol/ml] | MIC (Aspergillus niger [10]) [µM] | MFC99.5 (Talaromyces funiculosus [11]) [×10⁻² umol/ml] | MIC (Escherichia coli [12]) [µM] | MIC (Aspergillus fumigatus [13]) [µM] | MBC99.5 (Escherichia coli [14]) [×10⁻² umol/ml] | MBC99.5 (Pseudomonas aeruginosa [15]) [×10⁻² umol/ml] | MFC99.5 (Aspergillus flavus [16]) [×10⁻² umol/ml] | MIC (Aspergillus flavus [17]) [µM] | MBC99.5 (Salmonella typhimurium [18]) [×10⁻² umol/ml] | MFC99.5 (Penicillium ochrochloron [19]) [×10⁻² umol/ml] | MFC99.5 (Trichoderma viride [20]) [×10⁻² umol/ml] | also measured |
| --- | --- | --- | --- | --- | --- | --- | --- | --- | --- | --- | --- | --- | --- | --- | --- | --- | --- | --- | --- | --- | --- |
| Cc1nc(-c2ccccc2)sc1-c1cc(-c2ccccc2)nc(N)n1 | 34.8 | 5.8 | 14.5 (≈ 4.99 µg/mL) | 40.6 | 14.5 (≈ 4.99 µg/mL) | 14.5 (≈ 4.99 µg/mL) | 348 (≈ 120 µg/mL) | 5.8 | 34.8 | 58 (≈ 20 µg/mL) | 34.8 | 348 (≈ 120 µg/mL) | 58 (≈ 20 µg/mL) | 40.6 | 40.6 | 29 | 58 (≈ 20 µg/mL) | 34.8 | 40.6 | 29 | MIC (Bacillus cereus [21]): 58 µM (≈ 20 µg/mL); MIC (Talaromyces funiculosus [22]): 348 µM (≈ 120 µg/mL); MBC99.5 (Listeria monocytogenes [23]): 36.25 ×10⁻² umol/ml; MIC (Micrococcus flavus [24]): 58 µM (≈ 20 µg/mL); MIC (Aspergillus ochraceus [25]): 14.5 µM (≈ 4.99 µg/mL); MIC (Enterococcus faecalis [26]): 290 µM (≈ 99.9 µg/mL); MFC99.5 (Aspergillus niger [27]): 40.6 ×10⁻² umol/ml; MFC99.5 (Aspergillus versicolor [28]): 9 ×10⁻² umol/ml; MIC (Listeria monocytogenes [29]): 14.5 µM (≈ 4.99 µg/mL); MBC99.5 (Micrococcus flavus [30]): 29 ×10⁻² umol/ml; MIC (Pseudomonas aeruginosa [31]): 290 µM (≈ 99.9 µg/mL); MIC (Salmonella typhimurium [32]): 290 µM (≈ 99.9 µg/mL) |
| CNc1nc(C)c(C2=NN(c3ccccc3)C(c3ccc(C)cc3)C2)s1 (centres undefined) | 58.64 | 11.04 | 55.2 (≈ 20 µg/mL) | 27.6 | 55.2 (≈ 20 µg/mL) | 110 (≈ 40 µg/mL) | 276 (≈ 100 µg/mL) | 27.6 | 44.16 | 442 (≈ 160 µg/mL) | 44.16 | 276 (≈ 100 µg/mL) | 276 (≈ 100 µg/mL) | 58.6 | 33.12 | 27.6 | 110 (≈ 40 µg/mL) | 27.6 | 44.6 | 11.04 | MIC (Bacillus cereus [21]): 55.2 µM (≈ 20 µg/mL); MIC (Talaromyces funiculosus [22]): 276 µM (≈ 100 µg/mL); MBC99.5 (Listeria monocytogenes [23]): 11.04 ×10⁻² umol/ml; MIC (Micrococcus flavus [24]): 276 µM (≈ 100 µg/mL); MIC (Aspergillus ochraceus [25]): 96 µM (≈ 34.8 µg/mL); MIC (Enterococcus faecalis [26]): 442 µM (≈ 160 µg/mL); MFC99.5 (Aspergillus niger [27]): 58.6 ×10⁻² umol/ml; MFC99.5 (Aspergillus versicolor [28]): 27.6 ×10⁻² umol/ml; MIC (Listeria monocytogenes [29]): 96 µM (≈ 34.8 µg/mL); MBC99.5 (Micrococcus flavus [30]): 58.6 ×10⁻² umol/ml; MIC (Pseudomonas aeruginosa [31]): 276 µM (≈ 100 µg/mL); MIC (Salmonella typhimurium [32]): 110 µM (≈ 40 µg/mL) |
